Measured values as given in the supplement of paper PMC10307832.

Assays:
Experiment in all cases: relative viability (nuclei count vs DMSO), 5 days (fraction); higher = more cells survive
LXF-289 = tested on: LXF-289
Method in brief: (§1)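 Values are medians from duplicate plates. Each reflects relative viability, defined as the nuclei count of treated wells over that of vehicle wells. Lung cancer cell lines in 1536-well plates were pin-tool dosed one day after seeding with one drug alone or with a fixed anchor-drug dose plus five library-drug doses (not always all listed) in √10 steps, then fixed, stained and imaged at 4× after 5 days.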

HCC-44 = tested on: HCC-44
Method in brief: as §1

NCI-H1755 = tested on: NCI-H1755
Method in brief: as §1

HCC-827 = tested on: HCC-827
Method in brief: as §1

NCI-H1792 = tested on: NCI-H1792
Method in brief: as §1

SK-LU-1 = tested on: SK-LU-1
Method in brief: as §1

NCI-H1666 = tested on: NCI-H1666
Method in brief: as §1

NCI-H3122 = tested on: NCI-H3122
Method in brief: as §1

NCI-H2347 = tested on: NCI-H2347
Method in brief: as §1

LU99A = tested on: LU99A
Method in brief: as §1

NCI-H520 = tested on: NCI-H520
Method in brief: as §1

ChaGo-K-1 = tested on: ChaGo-K-1
Method in brief: as §1

NCI-H2126 = tested on: NCI-H2126
Method in brief: as §1

NCI-H1944 = tested on: NCI-H1944
Method in brief: as §1

NCI-H358 = tested on: NCI-H358
Method in brief: as §1

CAL-12T = tested on: CAL-12T
Method in brief: as §1

ABC-1 = tested on: ABC-1
Method in brief: as §1

RERF-LC-KJ = tested on: RERF-LC-KJ
Method in brief: as §1

LCLC-103H = tested on: LCLC-103H
Method in brief: as §1

NCI-H322M = tested on: NCI-H322M
Method in brief: as §1

Molecule Cc1cn(-c2cc(NC(=O)c3ccc(C)c(Nc4nccc(-c5cccnc5)n4)c3)cc(C(F)(F)F)c2)cn1 [Nilotinib] + C[C@@H](Oc1cc(-c2cnn(C3CCNCC3)c2)cnc1N)c1c(Cl)ccc(F)c1Cl [Crizotinib] (partner 1 µM) has a relative viability (LXF-289; first compound 0.001 µM) of 0.806, a relative viability (LXF-289; first compound 0.003162 µM) of 0.885 and a relative viability (LXF-289; first compound 0.01 µM) of 0.923. The relative viability (LXF-289; first compound 0.03162 µM) was 0.731, the relative viability (LXF-289; first compound 0.1 µM) was 0.765 and the relative viability (HCC-44; first compound 0.001 µM) was 0.799. It also gave a relative viability (HCC-44; first compound 0.003162 µM) of 0.978, a relative viability (HCC-44; first compound 0.01 µM) of 1.01 and a relative viability (HCC-44; first compound 0.03162 µM) of 0.717. The relative viability (HCC-44; first compound 0.1 µM) was 0.754, the relative viability (NCI-H1755; first compound 0.001 µM) was 0.778 and the relative viability (NCI-H1755; first compound 0.003162 µM) was 0.962. For the same molecule, the relative viability (NCI-H1755; first compound 0.01 µM) was 1.2, the relative viability (NCI-H1755; first compound 0.03162 µM) was 0.666 and the relative viability (NCI-H1755; first compound 0.1 µM) was 0.745. For the same molecule, the relative viability (HCC-827; first compound 0.001 µM) was 0.936, the relative viability (HCC-827; first compound 0.003162 µM) was 0.954 and the relative viability (HCC-827; first compound 0.01 µM) was 0.893. The relative viability (HCC-827; first compound 0.1 µM) was 0.91, the relative viability (NCI-H1792; first compound 0.001 µM) was 0.967 and the relative viability (NCI-H1792; first compound 0.01 µM) was 1.15. For the same molecule, the relative viability (NCI-H1792; first compound 0.1 µM) was 1.16, the relative viability (SK-LU-1; first compound 0.001 µM) was 0.893 and the relative viability (SK-LU-1; first compound 0.003162 µM) was 0.888. The relative viability (SK-LU-1; first compound 0.01 µM) was 0.933, the relative viability (SK-LU-1; first compound 0.03162 µM) was 0.805 and the relative viability (SK-LU-1; first compound 0.1 µM) was 0.693. The relative viability (NCI-H1666; first compound 0.001 µM) was 0.826, the relative viability (NCI-H1666; first compound 0.003162 µM) was 0.983 and the relative viability (NCI-H1666; first compound 0.01 µM) was 0.964. For the same molecule, the relative viability (NCI-H1666; first compound 0.03162 µM) was 0.936, the relative viability (NCI-H1666; first compound 0.1 µM) was 1.11 and the relative viability (NCI-H3122; first compound 0.001 µM) was 0.298. The relative viability (NCI-H3122; first compound 0.003162 µM) was 0.314, the relative viability (NCI-H3122; first compound 0.01 µM) was 0.33 and the relative viability (NCI-H3122; first compound 0.03162 µM) was 0.3. For the same molecule, the relative viability (NCI-H3122; first compound 0.1 µM) was 0.328, the relative viability (NCI-H2347; first compound 0.001 µM) was 0.698 and the relative viability (NCI-H2347; first compound 0.003162 µM) was 0.731. For the same molecule, the relative viability (NCI-H2347; first compound 0.01 µM) was 0.686, the relative viability (NCI-H2347; first compound 0.03162 µM) was 0.629 and the relative viability (NCI-H2347; first compound 0.1 µM) was 0.853. The relative viability (LU99A; first compound 0.001 µM) was 0.542, the relative viability (LU99A; first compound 0.003162 µM) was 0.545 and the relative viability (LU99A; first compound 0.01 µM) was 0.629. It also gave a relative viability (LU99A; first compound 0.03162 µM) of 0.429, a relative viability (LU99A; first compound 0.1 µM) of 0.343 and a relative viability (NCI-H520; first compound 0.001 µM) of 0.656. For the same molecule, the relative viability (NCI-H520; first compound 0.01 µM) was 0.866, the relative viability (NCI-H520; first compound 0.03162 µM) was 0.483 and the relative viability (NCI-H520; first compound 0.1 µM) was 0.678. The relative viability (ChaGo-K-1; first compound 0.001 µM) was 1.1, the relative viability (ChaGo-K-1; first compound 0.003162 µM) was 1.08 and the relative viability (ChaGo-K-1; first compound 0.01 µM) was 1.27. It also gave a relative viability (ChaGo-K-1; first compound 0.03162 µM) of 0.674, a relative viability (ChaGo-K-1; first compound 0.1 µM) of 1.08 and a relative viability (NCI-H2126; first compound 0.001 µM) of 1.02. For the same molecule, the relative viability (NCI-H2126; first compound 0.003162 µM) was 1.23, the relative viability (NCI-H2126; first compound 0.01 µM) was 1.39 and the relative viability (NCI-H2126; first compound 0.03162 µM) was 0.966. It also gave a relative viability (NCI-H2126; first compound 0.1 µM) of 0.943, a relative viability (NCI-H1944; first compound 0.001 µM) of 1.18 and a relative viability (NCI-H1944; first compound 0.003162 µM) of 1.24. For the same molecule, the relative viability (NCI-H1944; first compound 0.01 µM) was 1.21, the relative viability (NCI-H1944; first compound 0.03162 µM) was 1.16 and the relative viability (NCI-H1944; first compound 0.1 µM) was 0.939. It also gave a relative viability (NCI-H358; first compound 0.001 µM) of 0.447, a relative viability (NCI-H358; first compound 0.003162 µM) of 0.473 and a relative viability (NCI-H358; first compound 0.01 µM) of 0.407. For the same molecule, the relative viability (NCI-H358; first compound 0.03162 µM) was 0.469, the relative viability (NCI-H358; first compound 0.1 µM) was 0.735 and the relative viability (CAL-12T; first compound 0.003162 µM) was 0.519. The relative viability (CAL-12T; first compound 0.01 µM) was 0.902, the relative viability (CAL-12T; first compound 0.03162 µM) was 0.345 and the relative viability (CAL-12T; first compound 0.1 µM) was 0.6. The relative viability (ABC-1; first compound 0.001 µM) was 1.16, the relative viability (ABC-1; first compound 0.003162 µM) was 1.03 and the relative viability (ABC-1; first compound 0.01 µM) was 1.5. For the same molecule, the relative viability (ABC-1; first compound 0.03162 µM) was 0.913, the relative viability (ABC-1; first compound 0.1 µM) was 1.34 and the relative viability (RERF-LC-KJ; first compound 0.001 µM) was 0.872. It also gave a relative viability (RERF-LC-KJ; first compound 0.003162 µM) of 0.891, a relative viability (RERF-LC-KJ; first compound 0.01 µM) of 0.917 and a relative viability (RERF-LC-KJ; first compound 0.03162 µM) of 0.814. The relative viability (RERF-LC-KJ; first compound 0.1 µM) was 0.867, the relative viability (LCLC-103H; first compound 0.003162 µM) was 1.07 and the relative viability (LCLC-103H; first compound 0.03162 µM) was 0.945. For the same molecule, the relative viability (LCLC-103H; first compound 0.1 µM) was 1.08, the relative viability (NCI-H322M; first compound 0.001 µM) was 1.06 and the relative viability (NCI-H322M; first compound 0.003162 µM) was 0.869. The relative viability (NCI-H322M; first compound 0.03162 µM) was 0.727 and the relative viability (NCI-H322M; first compound 0.1 µM) was 0.984.
